Measurements published in publication PMC8329713, “The identification and structural analysis of potential 14-3-3 interaction sites on the bone regulator protein Schnurri-3” (Acta Crystallographica. Section F, Structural Biology …, 2021).
Values belong to the molecule of their own block, whether it stands above or below them. Non-standard residues stand in square brackets, D forms with d. No end group written: not given here. pS = N[C@@H](COP(=O)(O)O)C(=O)O

What was measured:
14-3-3σ [1] = target: T1, 14-3-3σ (Homo sapiens, UniProt P31947); experiment: Isothermal titration calorimetry (ITC) under reducing conditions, 14-3-3σ; assay type: binding; settings: FITC-labelled peptide titrated into 14-3-3σ, 18 injections of 2 µl, 25°C, 50 mM Tris pH 7.5, 150 mM NaCl, 5 mM MgCl2, 2 mM 2-mercaptoethanol, 0.05%(v/v) Tween-20
T1 construct: The full-length 14-3-3 isoforms were used in biophysical assays; His6 (cleaved yes); made in house; host or cells: Escherichia coli NiCo21(DE3)
T1 sequence (P31947 1-248): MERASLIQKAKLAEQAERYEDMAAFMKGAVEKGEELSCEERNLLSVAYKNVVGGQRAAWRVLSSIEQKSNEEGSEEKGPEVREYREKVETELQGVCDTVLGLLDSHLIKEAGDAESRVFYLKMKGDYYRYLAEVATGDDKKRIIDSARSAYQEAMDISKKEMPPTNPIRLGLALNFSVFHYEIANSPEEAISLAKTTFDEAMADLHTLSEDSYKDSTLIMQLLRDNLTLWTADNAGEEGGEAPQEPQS
Experimental: (§1) 14-3-3 isoforms γ, τ, σ, ɛ, η, ζ, β (full length) and 14-3-3σΔC (residues 231–248 deleted) were expressed with a His6 tag in Escherichia coli NiCo21(DE3) competent cells from a pPRoeX-Htb vector in 2×TY medium. Purification was carried out by affinity chromatography on nickel columns (HisTrap HP, 5 ml). The tags were cleaved with TEV protease. The proteins were then loaded again onto nickel columns to remove any noncleaved protein. A final purification step was performed by loading the proteins onto a size-exclusion chromatography column (HiLoad 26/600 Superdex 75 pg) equilibrated in 20 mM Tris–HCl pH 7.5, 150 mM NaCl, 2 mM DTT. All purification steps were performed on an ÄKTApure protein-purification system (Cytiva). The full-length 14-3-3 isoforms were used in biophysical assays and the 14-3-3σΔC construct was used for crystallographic purposes. […]
(§2) Fluorescence polarization (FP) binding assays were carried out in Corning 384-well 3575 plates, serially diluting (twofold) the 14-3-3 isoforms in the presence of 10 nM FITC-labelled peptides. […] The data were collected on a PHERAstar FSX plate reader (BMG Labtech) with an excitation wavelength of 485 nm and an emisson wavelength of 520 nm. […] The data were analysed using the MicroCal PEAQ-ITC Analysis Software (Malvern).

14-3-3 isoforms = experiment: Fluorescence polarization (FP) binding assay, all 14-3-3 isoforms taken together; design: species or system human; settings: FITC-labelled peptide 10 nM, only a modest FP signal at the highest concentrations, not possible to calculate Kd values
Experimental: as §1, §2

14-3-3σ [2] = target: T1, 14-3-3σ; experiment: X-ray protein crystallography with 14-3-3σΔC; settings: crystal structures with 14-3-3σΔC, PDB 7b13 (SHN3pS542) and 7b15 (SHN3pT869)
Experimental: 14-3-3 isoforms γ, τ, σ, ɛ, η, ζ, β (full length) and 14-3-3σΔC (residues 231–248 deleted) were expressed with a His6 tag in Escherichia coli NiCo21(DE3) competent cells from a pPRoeX-Htb vector in 2×TY medium. Purification was carried out by affinity chromatography on nickel columns (HisTrap HP, 5 ml). The tags were cleaved with TEV protease. The proteins were then loaded again onto nickel columns to remove any noncleaved protein. A final purification step was performed by loading the proteins onto a size-exclusion chromatography column (HiLoad 26/600 Superdex 75 pg) equilibrated in 20 mM Tris–HCl pH 7.5, 150 mM NaCl, 2 mM DTT. All purification steps were performed on an ÄKTApure protein-purification system (Cytiva). The full-length 14-3-3 isoforms were used in biophysical assays and the 14-3-3σΔC construct was used for crystallographic purposes.
The peptides SHN3pS542 (LLRSHpS542MPSAAC) and SHN3pT869 (PDRPDpT869EPEPPP) were ordered with a purity of >95% from GenScript in an N-terminally acetylated version and an N-terminally FITC-Ahx-labelled version.
For protein crystallization, a C-terminally truncated version of 14-3-3σ was used (14-3-3σΔC; deletion of the 17 C-terminal amino acids; Schumacher et al., 2010[▸]). […]

14-3-3γ (full length) = target: T2, 14-3-3γ (full length) (human, UniProt P61981 1-247); experiment: ITC; peptide titrated into the cell containing the 14-3-3 protein, 18 injections of 2 µl, 25°C; 50 mM Tris pH 7.5, 150 mM NaCl, 5 mM MgCl2, 2 mM 2-mercaptoethanol, 0.05% Tween-20 (reducing conditions); settings: both partners purified
T2 construct: 14-3-3 protein gamma, human, full length; Expressed from a pPRoeX-Htb vector; also called 14-3-3 isoform γ; source: E. coli NiCo21(DE3), purified (nickel column, TEV cleavage, second nickel column, SEC)
T2 sequence (looked up): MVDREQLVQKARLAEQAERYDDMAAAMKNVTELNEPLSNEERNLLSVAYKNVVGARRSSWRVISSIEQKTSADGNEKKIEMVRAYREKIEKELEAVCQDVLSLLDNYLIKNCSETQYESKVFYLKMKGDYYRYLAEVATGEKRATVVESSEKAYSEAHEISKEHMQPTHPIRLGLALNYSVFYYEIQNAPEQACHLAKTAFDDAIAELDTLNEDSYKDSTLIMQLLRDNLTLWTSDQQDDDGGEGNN

14-3-3σ (full length) = target: T3, 14-3-3σ (full length) (human, UniProt P31947 1-248); experiment: as above; settings: both partners purified
T3 construct: 14-3-3 protein sigma, human, full length; Expressed from a pPRoeX-Htb vector; also called 14-3-3 isoform σ; the σ isoform; source: E. coli NiCo21(DE3), purified (nickel column, TEV cleavage, second nickel column, SEC)
T3 sequence (looked up): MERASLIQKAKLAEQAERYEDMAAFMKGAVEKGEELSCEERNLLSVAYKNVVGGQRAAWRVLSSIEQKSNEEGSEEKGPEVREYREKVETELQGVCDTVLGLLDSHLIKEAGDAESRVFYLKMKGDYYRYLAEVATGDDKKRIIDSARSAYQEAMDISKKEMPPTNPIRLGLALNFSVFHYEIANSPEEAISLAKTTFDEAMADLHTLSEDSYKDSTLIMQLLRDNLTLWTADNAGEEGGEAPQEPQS

- Kd (14-3-3σ [1]): 4.8 ± 0.8 µM
Molecule: LLRSHpS542MPSAAC [SHN3pS542-FITC, N-terminally FITC-Ahx-labelled version of SHN3pS542, as used in the FP assay]

- binding to 14-3-3 isoforms (in words) (14-3-3 isoforms): very weak 14-3-3 binder
Molecule: PDRPDpT869EPEPPP [SHN3pT869, synthetic phosphopeptide PDRPDpT869EPEPPP derived from human Schnurri-3 (SHN3)]
- polar contacts with 14-3-3σ residues (14-3-3σ [2]): Polar contacts are established between Glu872 and Glu870 of SHN3pT869 and Asn50, Lys122, Lys49 and Asn175 on the C-terminal side of the peptide and between Asp868 and Pro867 of SHN3pT869 and Asn226 on the N-terminal side of the peptide

- Kd (14-3-3γ (full length)): 0.69 ± 0.15 µM
- Kd (14-3-3σ (full length)): 5.8 ± 1.3 µM
B1: SHN3pS542 peptide, N-terminally acetylated (peptide)
peptide: Ac-LLRSH[pS]MPSAAC
modifications: also: phosphoserine at 542, position not mapped
notes: Schnurri-3 (SHN3, transcription factor HIVEP3), human, 12-mer around phosphorylated Ser542; also called the acetylated peptide; source: synthetic peptide, bought: GenScript (purity >95%)
